Measurements from publication PMC5100001, “Defining the extreme substrate specificity of Euonymus alatus diacylglycerol acetyltransferase, an unusual membrane-bound O-acyltransferase” (Bioscience Reports, 2016).

Molecular target: T1, EaDAcT (Euonymus alatus diacylglycerol acetyltransferase) (Euonymus alatus, UniProt D6NSS8)
T1 construct: gene DAcT; full-length ORF in microsomes of S. cerevisiae H1246 (quadruple knockout); C-terminal HA tag printed for the pESC-URA coexpression construct; N-terminus MDAHQEIK translated from printed primer
Assay: microsomal acyltransferase assay, ESI-MS quantification of sn-3 acyl TAG
Assay type: biochemical
Conditions: acyl donor 50 to 1500 uM, endogenous sn-1,2-DAG as acceptor, pH 7.5, 30 C

T1 sequence (D6NSS8 entry or part of it): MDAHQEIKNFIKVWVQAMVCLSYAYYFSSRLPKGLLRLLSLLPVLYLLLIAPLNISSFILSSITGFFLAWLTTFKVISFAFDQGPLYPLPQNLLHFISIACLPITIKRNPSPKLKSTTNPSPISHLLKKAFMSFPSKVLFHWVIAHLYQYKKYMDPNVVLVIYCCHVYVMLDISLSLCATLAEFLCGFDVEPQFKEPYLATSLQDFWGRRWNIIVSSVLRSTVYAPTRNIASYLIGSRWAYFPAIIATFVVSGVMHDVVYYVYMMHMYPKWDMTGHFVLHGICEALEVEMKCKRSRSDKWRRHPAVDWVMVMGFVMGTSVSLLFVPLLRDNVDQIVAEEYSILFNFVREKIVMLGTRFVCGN

Row | Compound | microsomal acyltransferase assay, ESI-MS quantification of sn-3 acyl TAG ([1,2-13C] labelled compound) | microsomal acyltransferase assay, ESI-MS quantification of sn-3 acyl TAG (unlabelled)
1 | CC(=O)SCCNC(=O)CCNC(=O)[C@H](O)C(C)(C)COP(=O)(O)OP(=O)(O)OC[C@H]1O[C@@H](n2cnc3c(N)ncnc32)[C@H](O)[C@@H]1OP(=O)(O)O [acetyl-CoA] | higher rates of production formation were always achieved with acetyl-CoA compared with butyryl- or hexanoyl-CoA | 
2 | CCCC(=O)SCCNC(=O)CCNC(=O)[C@H](O)C(C)(C)COP(=O)(O)OP(=O)(O)OC[C@H]1O[C@@H](n2cnc3c(N)ncnc32)[C@H](O)[C@@H]1OP(=O)(O)O [butyryl-CoA] |  | Reaction rates with butyryl-CoA and hexanoyl-CoA were relatively similar to one another
